Reference: patent US10858425B2, “Pan-ELR+ CXC chemokine antibodies” (Eli Lilly and Company, priority 2013, dated 2020)
Each block holds one molecule with its values, some of them ahead of it.

How the values were obtained:
[1] = tested on: SKOV3-Luc ovarian cancer cells; assay: SKOV3-Luc ovarian cancer xenograft model; format: in vivo, athymic nude female mice
Experimental: SKOV3-Luc is a human ovary cancer cell line that expresses firefly luciferase gene. SKOV3-Luc cells are often used in vivo to establish human ovarian adenocarcinoma tumor growth.
SKOV3-Luc ovarian cancer cells were mixed 1:1 with matrigel and implanted subcutaneously in the right rear flank of athymic nude female mice at 3.0×10^6 cells per injection. Mice were randomized into 4 groups at baseline according to tumor volume after the xenografts were grown to an average tumor volume of 200 mm^3. Mice received either control IgG4 antibody (2.5 mg/kg once a week), cisplatin (2.5 mg/kg once a week), Antibody 1 (20 mg/kg once a week), or a combination of cisplatin (2.5 mg/kg once a week) and Antibody 1 (20 mg/kg once a week) by intraperitoneal injection.

[2] = molecular target: T1, human CXCR2 (U937-huCXCR2 cells) (Homo sapiens, UniProt P25025); assay: U937-huCXCR2 FLIPR activity of human CXCL8 wild type and mutants; format: cell-based; conditions: CXCL8 variant as ligand on U937-huCXCR2 cells
T1 construct: expressed in transfected cells; host or cells: U937 monocytic cell line, retrovirally transduced
T1 sequence (P25025 1-360): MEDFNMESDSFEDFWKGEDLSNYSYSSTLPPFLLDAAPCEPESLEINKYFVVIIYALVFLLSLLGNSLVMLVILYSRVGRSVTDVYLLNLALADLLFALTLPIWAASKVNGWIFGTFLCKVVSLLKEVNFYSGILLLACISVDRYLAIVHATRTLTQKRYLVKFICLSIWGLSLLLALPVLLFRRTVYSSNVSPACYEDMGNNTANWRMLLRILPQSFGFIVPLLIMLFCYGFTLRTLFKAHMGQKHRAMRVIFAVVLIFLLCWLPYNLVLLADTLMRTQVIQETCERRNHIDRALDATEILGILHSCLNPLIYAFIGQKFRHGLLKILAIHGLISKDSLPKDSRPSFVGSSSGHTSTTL
Experimental: Wild type and mutant human CXCL8 are tested for biologic activity and for neutralization by Antibody 1 using the U937-huCXCR2 assay. U937-huCXCR2 is a monocytic cell line transduced with retrovirus for expression of human CXCR2. A description of the U937-huCXCR2 assay is found below under Neutralizing Assays.
CXCL8 mutants are serially diluted in Assay Buffer containing 0.2% BSA in wells of v-bottom 96-well polypropylene plates. Ligand concentrations are 3 times the final assay concentration (final assay concentrations range from 300 to 0.0051 nM). A cell plate and a ligand plate are loaded into a Fluorescent Imaging Plate Reader (FLIPR-3, Molecular Devices) programmed to transfer 50 μL of ligand to wells of the cell plate. Fluorescence is recorded at 1 second intervals for 90 seconds. The change in fluorescence [delta relative fluorescence units (DRFU), Max RFU-Min RFU] is calculated from images 10 to 90. DRFU versus log (ligand concentration) is plotted and EC50 values are determined by nonlinear regression using Graph Pad Prism. Assays are performed in triplicate over three assay plates.

Molecule: N.N.[Cl][Pt][Cl] [Cisplatin, cisplatin]
Average Tumor Volume ([1]; Day 14): 122.65 mm^3
Average Tumor Volume ([1]; Day 19): 190.65 mm^3
Average Tumor Volume ([1]; Day 22): 289.15 mm^3
Average Tumor Volume ([1]; Day 26): 484.72 mm^3
Average Tumor Volume ([1]; Day 32): 806.31 mm^3
Average Tumor Volume ([1]; Day 35): 923.02 mm^3
Average Tumor Volume ([1]; Day 40): 941.42 mm^3
Average Tumor Volume ([1]; Day 43): 1047.34 mm^3
tumor growth inhibition ([1]; compared to isotype control, intraperitoneal, once a week): did not show statistically significant tumor growth inhibition

U937 FLIPR activity EC50 [2]: Not Active
Molecule: I10A: human CXCL8 point mutant I10A based on SEQ ID NO: 27 [Antibody I10A]

U937 FLIPR activity EC50 [2]: Not Active
Molecule: I40A: human CXCL8 point mutant I40A based on SEQ ID NO: 27 [Antibody I40A]

U937 FLIPR activity EC50 [2]: Not Active
Molecule: R6A: human CXCL8 point mutant R6A based on SEQ ID NO: 27 [Antibody R6A]
